Test [1] concerns the target human PDE41 Dcatalytic domain (UniProt no. Q08499 [S380-L740]) (Homo sapiens (Human), UniProt Q08499). The test is described as follows: PDE4 Assay (TR-FRET, FAM-cAMP cleavage). The test is classed as biochemical. The following applies: human PDE4D catalytic domain, cAMP / FAM-cAMP substrate, read-out: PDE4 IC50 range. Here is the method:
The human PDE41 Dcatalytic domain (UniProt no. Q08499 [S380-L740]) was incubated with a mixture of non-labelled cAMP (cyclic adenosine monophosphate) and fluorescein amidite (FAM) conjugated cAMP and titrated test or reference compound. Following brief incubation the enzymatic reaction was stopped by addition of binding buffer containing nanoparticles with immobilized trivalent metal ions capable of binding 1) AMP phospho groups and 2) terbium (Tb) donor fluorophores. Subsequent excitation of the Tb donor triggers time-resolved FRET to adjacent FAM acceptor molecules resulting in light emission. In the presence of a PDE4 inhibitor, AMP generation was reduced resulting in a lower fluorescence signal. The cAMP phosphodiester is not bound by the detection system.
The results were calculated as the molar concentrations resulting in 50/inhibition of the substrate cleavage compared to controls samples, and are expressed as IC50 (nM).
A general note: Time-resolved FRET reads energy transfer from a long-lived donor to a nearby acceptor.

The subject of test [2] is TNF-α release, human peripheral blood mononuclear cells (PBMC). Description: TNF-α Release in LPS-stimulated PBMC. It counts as cell-based. The note with it: 30 minutes pre-incubation, lipopolysaccharide stimulation 18 hours, TR-FRET, read-out: TNF-α IC50 range. Here is the method: Human peripheral blood mononuclear cells (PBMC) were isolated from buffy coats. The blood is mixed with saline at a ratio of 1:1, and the PBMC were isolated using Lymphoprep Tube™ (Nycomed, Norway). The PBMC were suspended in RPMI1640 with 0.5% human serum albumin, pen/strep and 2 mM L-glutamine at a concentration of 5×105 c/ml. The cells were pre-incubated for 30 minutes with the test compounds in 96 well tissue culture plates and stimulated for 18 hours with lipopolysaccharide 1 mg/ml (Sigma). TNF-α concentration in the supernatants was measured using homogeneous time-resolved fluorescence resonance (TR-FRET). The assay is quantified by measuring fluorescence at 665 nm (proportional to TNF-α concentration) and 620 nm (control).
Results were expressed as IC50 values calculated from inhibition curves using as positive controls the secretion in LPS stimulated wells and as negative controls the secretion in unstimulated cells.

Each structure is given as a SMILES string. pIC50: −log10 of the molar value. Bounds are passed on as bounds.

Sequence of human PDE41 Dcatalytic domain (Q08499 380-740): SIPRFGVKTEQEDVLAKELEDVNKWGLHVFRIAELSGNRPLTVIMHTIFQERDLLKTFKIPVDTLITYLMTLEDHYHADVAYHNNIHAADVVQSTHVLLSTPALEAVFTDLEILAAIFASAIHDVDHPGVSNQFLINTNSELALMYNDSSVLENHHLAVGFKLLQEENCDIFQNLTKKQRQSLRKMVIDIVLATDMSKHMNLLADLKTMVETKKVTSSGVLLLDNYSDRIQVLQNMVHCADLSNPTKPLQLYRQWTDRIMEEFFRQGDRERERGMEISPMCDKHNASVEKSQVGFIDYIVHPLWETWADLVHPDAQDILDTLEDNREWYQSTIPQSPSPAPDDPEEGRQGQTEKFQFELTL

Broadly, the pIC50 is the IC50 on a negative log10 scale, so that one unit is a factor of ten. `CN(CCC1CCOCC1)c1nc2c(c(NC3CCOCC3)n1)[S+]([O-])CC2` (stereo in doubt) [Example 1, (5R)—N2-methyl-5-oxido-N4-tetrahydropyran-4-yl-N2-(2-tetrahydropyran-4-ylethyl)-6,7-dihydrothieno[3,2-d]pyrimidin-5-ium-2,4-diamine]: the pIC50 in test [1] and in test [2] was 7.30 to 8.00 in each case.

Turning to `CCN(CCC1CCOCC1)c1nc2c(c(NC3CCOCC3)n1)[S@@+]([O-])CC2` [Example 2, (5R)—N2-ethyl-5-oxido-N4-tetrahydropyran-4-yl-N2-(2-tetrahydropyran-4-ylethyl)-6,7-dihydrothieno[3,2-d]pyrimidin-5-ium-2,4-diamine], the negative logarithm of the IC50 (pIC50) in test [1] and in test [2] was greater than 8.00 in each case.

Turning to `CN(CCC1CCOCC1)c1nc2c(c(NC(C)(C)C)n1)[S+]([O-])CC2` (stereo not drawn) [Example 3, N4-tert-butyl-N2-methyl-5-oxido-N2-(2-tetrahydropyran-4-ylethyl)-6,7-dihydrothieno[3,2-d]pyrimidin-5-ium-2,4-diamine], the pIC50 in test [1] and in test [2] was 7.30 to 8.00 in each case.

For the compound `CCCNc1nc(N(C)CCC2CCOCC2)nc2c1[S+]([O-])CC2` (stereo not drawn) [Example 4, N2-methyl-5-oxido-N4-propyl-N2-(2-tetrahydropyran-4-ylethyl)-6,7-dihydrothieno[3,2-d]pyrimidin-5-ium-2,4-diamine], the negative logarithm of the IC50 (pIC50) in test [1] was 7.00 to 7.30; in test [2], 7.30 to 8.00.

As for `CC(C)Nc1nc(N(C)CCC2CCOCC2)nc2c1[S+]([O-])CC2` (stereo not drawn) [Example 5, N4-isopropyl-N2-methyl-5-oxido-N2-(2-tetrahydropyran-4-ylethyl)-6,7-dihydrothieno[3,2-d]pyrimidin-5-ium-2,4-diamine], the pIC50 in test [1] and in test [2] was 7.30 to 8.00 throughout.

With `CCCCNc1nc(N(C)CCC2CCOCC2)nc2c1[S+]([O-])CC2` (stereo not drawn) [Example 6, N4-butyl-N2-methyl-5-oxido-N2-(2-tetrahydropyran-4-ylethyl)-6,7-dihydrothieno[3,2-d]pyrimidin-5-ium-2,4-diamine], the pIC50 in test [1] and in test [2] was 7.30 to 8.00 throughout.

For `CC(C)CNc1nc(N(C)CCC2CCOCC2)nc2c1[S+]([O-])CC2` (stereo not drawn) [Example 7, N4-isobutyl-N2-methyl-5-oxido-N2-(2-tetrahydropyran-4-ylethyl)-6,7-dihydrothieno[3,2-d]pyrimidin-5-ium-2,4-diamine], the pIC50 in test [1] and in test [2] was 7.30 to 8.00 in each case.

Regarding `CN(CCC1CCOCC1)c1nc2c(c(NC3(C)CCC3)n1)[S+]([O-])CC2` (stereo not drawn) [Example 8, N2-methyl-N4-(1-methylcyclobutyl)-5-oxido-N2-(2-tetrahydropyran-4-ylethyl)-6,7-dihydrothieno[3,2-d]pyrimidin-5-ium-2,4-diamine], the results for the pIC50 in test [1] and in test [2] were 7.30 to 8.00 and greater than 8.00, respectively.

Turning to `CN(CCC1CCOCC1)c1nc2c(c(NC3CCC3)n1)[S+]([O-])CC2` (stereo not drawn) [Example 9, N4-cyclobutyl-N2-methyl-5-oxido-N2-(2-tetrahydropyran-4-ylethyl)-6,7-dihydrothieno[3,2-d]pyrimidin-5-ium-2,4-diamine], the pIC50 in test [1] and in test [2] was 7.30 to 8.00 throughout.

With `CN(CCC1CCOCC1)c1nc2c(c(NC3(C#N)CCC3)n1)[S+]([O-])CC2` (stereo not drawn) [Example 10, 1-[[2-[methyl(2-tetrahydropyran-4-ylethyl)amino]-5-oxido-6,7-dihydrothieno[3,2-d]pyrimidin-5-ium-4-yl]amino]cyclobutanecarbonitrile], the pIC50 in test [1] and in test [2] was 7.30 to 8.00 each time.

In the case of `CN(CCC1CCOCC1)c1nc2c(c(NC3(C#N)CC3)n1)[S+]([O-])CC2` (stereo not drawn) [Example 11, 1-[[2-[methyl(2-tetrahydropyran-4-ylethyl)amino]-5-oxido-6,7-dihydrothieno[3,2-d]pyrimidin-5-ium-4-yl]amino]cyclopropanecarbonitrile], the pIC50 in test [1] and in test [2] was 7.30 to 8.00 in each case.

In the case of `CC[C@H](C)Nc1nc(N(C)CCC2CCOCC2)nc2c1[S+]([O-])CC2` (stereo partly drawn) [Example 12, N2-methyl-N4-[(1S)-1-methylpropyl]-5-oxido-N2-(2-tetrahydropyran-4-ylethyl)-6,7-dihydrothieno[3,2-d]pyrimidin-5-ium-2,4-diamine], the pIC50 in test [1] and in test [2] was 7.30 to 8.00 each time.

In the case of `CC[C@@H](C)Nc1nc(N(C)CCC2CCOCC2)nc2c1[S+]([O-])CC2` (stereo partly drawn) [Example 13, N2-methyl-N4-[(1R)-1-methylpropyl]-5-oxido-N2-(2-tetrahydropyran-4-ylethyl)-6,7-dihydrothieno[3,2-d]pyrimidin-5-ium-2,4-diamine], the results for the pIC50 in test [1] and in test [2] were 7.30 to 8.00 and greater than 8.00, respectively.

Take `CN(CCC1CCOCC1)c1nc2c(c(NC3(C)CC3)n1)[S+]([O-])CC2` (stereo not drawn) [Example 14, N2-methyl-N4-(1-methylcyclopropyl)-5-oxido-N2-(2-tetrahydropyran-4-ylethyl)-6,7-dihydrothieno[3,2-d]pyrimidin-5-ium-2,4-diamine]: the pIC50 was 7.30 to 8.00 in test [1] and greater than 8.00 in test [2].

Turning to `CN(CCC1CCOCC1)c1nc2c(c(NC3CC4(COC4)C3)n1)[S+]([O-])CC2` (stereo not drawn) [Example 15, N2-methyl-N4-(6-oxaspiro[3.3]heptan-2-yl)-5-oxido-N2-(2-tetrahydropyran-4-ylethyl)-6,7-dihydrothieno[3,2-d]pyrimidin-5-ium-2,4-diamine], the pIC50 in test [1] is 7.30 to 8.00; in test [2] it was greater than 8.00.

`COc1cccc(Nc2nc(N(C)CCC3CCOCC3)nc3c2[S+]([O-])CC3)c1` (stereo not drawn) [Example 16, N4-(3-methoxyphenyl)-N2-methyl-5-oxido-N2-(2-tetrahydropyran-4-ylethyl)-6,7-dihydrothieno[3,2-d]pyrimidin-5-ium-2,4-diamine]: the pIC50 in test [1] and in test [2] was greater than 8.00 each time.

Consider `CN(CCC1CCOCC1)c1nc2c(c(NC3CCCCC3)n1)[S+]([O-])CC2` (stereo not drawn) [Example 17, N4-cyclohexyl-N2-methyl-5-oxido-N2-(2-tetrahydropyran-4-ylethyl)-6,7-dihydrothieno[3,2-d]pyrimidin-5-ium-2,4-diamine], for which the pIC50 in test [1] and in test [2] was greater than 8.00 throughout.

As to `CN(CCC1CCOCC1)c1nc2c(c(NC(C)(C)CO)n1)[S+]([O-])CC2` (stereo not drawn) [Example 18, 2-methyl-2-[[2-[methyl(2-tetrahydropyran-4-ylethyl)amino]-5-oxido-6,7-dihydrothieno[3,2-d]pyrimidin-5-ium-4-yl]amino]propan-1-ol], the pIC50 in test [1] and in test [2] was less than 7.00 throughout.

Take `CCNc1nc(N(C)CCC2CCOCC2)nc2c1[S+]([O-])CC2` (stereo not drawn) [Example 19, N4-ethyl-N2-methyl-5-oxido-N2-(2-tetrahydropyran-4-ylethyl)-6,7-dihydrothieno[3,2-d]pyrimidin-5-ium-2,4-diamine]: the pIC50 in test [1] is less than 7.00; in test [2], 7.00 to 7.30.

As for `CN(CCC1CCOCC1)c1nc2c(c(NC3CCCC3)n1)[S+]([O-])CC2` (stereo not drawn) [Example 20, N4-cyclopentyl-N2-methyl-5-oxido-N2-(2-tetrahydropyran-4-ylethyl)-6,7-dihydrothieno[3,2-d]pyrimidin-5-ium-2,4-diamine], the negative-log IC50 (pIC50) in test [1] and in test [2] was greater than 8.00 throughout.

Regarding `CN(CCC1CCOCC1)c1nc2c(c(NC3COC3)n1)[S+]([O-])CC2` (stereo not drawn) [Example 21, N2-methyl-N4-(oxetan-3-yl)-5-oxido-N2-(2-tetrahydropyran-4-ylethyl)-6,7-dihydrothieno[3,2-d]pyrimidin-5-ium-2,4-diamine], the pIC50 in test [1] is less than 7.00; in test [2] it was 7.00 to 7.30.

For the compound `CN(CCC1CCOCC1)c1nc2c(c(NC3(CO)CCCC3)n1)[S+]([O-])CC2` (stereo not drawn) [Example 22, [1-[[2-[methyl(2-tetrahydropyran-4-ylethyl)amino]-5-oxido-6,7-dihydrothieno[3,2-d]pyrimidin-5-ium-4-yl]amino]cyclopentyl]methanol], the pIC50 in test [1] and in test [2] was less than 7.00 throughout.

With `CN(CCC1CCOCC1)c1nc2c(c(NC3(CO)CCC3)n1)[S+]([O-])CC2` (stereo not drawn) [Example 23, [1-[[2-[methyl(2-tetrahydropyran-4-ylethyl)amino]-5-oxido-6,7-dihydrothieno[3,2-d]pyrimidin-5-ium-4-yl]amino]cyclobutyl]methanol], the pIC50 in test [1] and in test [2] was less than 7.00 throughout.

Turning to `CN(CCC1CCOCC1)c1nc2c(c(NC3(CO)CC3)n1)[S+]([O-])CC2` (stereo not drawn) [Example 24, [1-[[2-[methyl(2-tetrahydropyran-4-ylethyl)amino]-5-oxido-6,7-dihydrothieno[3,2-d]pyrimidin-5-ium-4-yl]amino]cyclopropyl]methanol], the pIC50 in test [1] and in test [2] was less than 7.00 each time.

For the origin of these results see patent publication US11299497B2, “Substituted tetrahydropyran dihydrothienopyrimidines and their use as phosphodiesterase inhibitors” (UNION therapeutics A/S, priority 2017, dated 2022).
